Consider 30 compounds from patent publication US20070213394A1 (priority 2004, published 2007).

For experiment [1], the system named is rats. In words: Forced swim test (FST). The following applies: FIG. 3A. The format is in vivo, rat.
The test system of experiment [2] is rats. In words: Locomotor activity test. The following applies: FIG. 3B. The experiment is classed as in vivo, rat.
The test system of experiment [3] is rats. Kind of experiment: Intracranial self-stimulation (ICSS), lateral hypothalamic brain stimulation. The format is in vivo, rat. The following applies: 1.0 mg/kg, IP, 1-hour test sessions, FIG. 4.
Experiment [4] concerns the target T1, human kappa opioid receptor (Homo sapiens, UniProt P41145).
T1 construct: expressed in transfected cells; host or cells: Chinese hamster ovary cells (CHO-hKOR), membranes
Kind of experiment: biochemical. The experiment is classed as binding.

Experiment [5] addresses T1, human kappa opioid receptor. Kind of experiment: biochemical. The following applies: for Emax: 1 h, read-out: Efficacy.

Where two headings read alike, the source gives them in different places.

T1 sequence (P41145 whole entry): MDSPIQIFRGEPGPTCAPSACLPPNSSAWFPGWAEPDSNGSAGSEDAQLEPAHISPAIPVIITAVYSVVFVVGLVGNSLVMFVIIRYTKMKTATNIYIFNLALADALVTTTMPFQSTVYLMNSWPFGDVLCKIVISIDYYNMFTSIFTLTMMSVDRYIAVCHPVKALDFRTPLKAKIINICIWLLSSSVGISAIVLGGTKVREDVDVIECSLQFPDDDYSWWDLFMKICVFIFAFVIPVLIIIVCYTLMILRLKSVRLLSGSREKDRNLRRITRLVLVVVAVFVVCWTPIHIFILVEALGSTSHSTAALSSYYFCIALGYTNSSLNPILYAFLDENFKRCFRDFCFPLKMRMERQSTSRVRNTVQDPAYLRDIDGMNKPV

With `COC(=O)[C@@H]1C[C@H](OC(C)=O)C(=O)C2[C@@]1(C)CC[C@H]1C(=O)O[C@H](c3ccoc3)C[C@]21C` (stereo partly drawn) [salvinorin A], the “effect in the forced swim test” value in the experiment with rats [1] is recorded as “depressive-like effects”. Moreover, the “effect on locomotor activity” value in the experiment on rats [2] was “without affecting locomotor activity”. For the same compound, in the experiment with rats [3], the ICSS thresholds entry is “significantly elevated ICSS thresholds”.
As a reminder, the Ki is the equilibrium dissociation constant of an inhibitor or competing ligand from its target. The term EC50 denotes the concentration giving half of the maximal effect. For the compound `CCNC(=O)O[C@H]1C[C@@H](C(=O)OC)[C@]2(C)CC[C@H]3C(=O)O[C@H](c4ccoc4)C[C@]3(C)C2C1=O` (stereo partly drawn) [Compound 20, 2-(O—(N-ethyl)formamide)-salvinorin B], the Ki in experiment [4] was determined as 462 ± 20 nM. For the same compound, the EC50 in experiment [5] is over 1000 nM.
On to `COC(=O)C1CC(NC(C)=O)C(=O)C2C1(C)CCC1C(=O)OC(c3ccoc3)CC12C` (stereo not drawn) [Compound 212b, 2-epi-(acetamide)-salvinorin], for which the Ki in experiment [4] (read-out: Ki) was determined as 332 ± 41 nM. For the same compound, the EC50 in experiment [5] (read-out: EC50) stood at 339 ± 33 nM.
Take `CC(=O)OC1CC(C(=O)N2CCCC2C(=O)OCc2ccccc2)C2(C)CCC3C(=O)OC(c4ccoc4)CC3(C)C2C1=O` (stereo not drawn) [Compound 103]: in experiment [4], the affinity corresponds to a Ki of 210 ± 32 nM. In addition, in experiment [5], the EC50 came out at 348 ± 26 nM and the Emax is 100%.
`C=CCO[C@H]1C[C@@H](C(=O)OC)[C@]2(C)CC[C@H]3C(=O)O[C@H](c4ccoc4)C[C@]3(C)C2C1=O` (stereo partly drawn) [Compound 14, 2-allyloxy-salvinorin B] had a Ki in experiment [4] of 60.1 ± 5.1 nM. Besides, in experiment [5], the EC50 amounted to 145 ± 33 nM and the Emax was found to be 106%.
For `COC(=O)C1CC(N(C)C(C)=O)C(=O)C2C1(C)CCC1C(=O)OC(c3ccoc3)CC12C` (stereo not drawn) [Compound 214a, 2-(N-methylacetamide)-salvinorin], in experiment [4], the Ki worked out at 3.2 ± 0.1 nM. Further, in experiment [5], the EC50 was found to be 2.4 ± 0.7 nM and the Emax is 103%.
`CCN[C@@H]1C[C@@H](C(=O)OC)[C@]2(C)CC[C@H]3C(=O)O[C@H](c4ccoc4)C[C@]3(C)C2C1=O` (stereo partly drawn) [Compound 18, 2-(N-ethylamino)-salvinorin] returned a Ki in experiment [4] of 28.9 ± 1 nM. This compound returned an EC50 in experiment [5] of 68.9 ± 5.3 nM.
Consider `COC(=O)[C@@H]1C[C@H](OC(=O)[C@H](C)NC(C)=O)C(=O)C2[C@@]1(C)CC[C@H]1C(=O)O[C@H](c3ccoc3)C[C@]21C` (stereo partly drawn) [Compound 91], for which the affinity in experiment [4], expressed as Ki, was 176 ± 5.5 nM. Besides, in experiment [5], a half-maximal response (EC50) required 219 ± 25 nM and the Emax stood at 93%.
In turn, `CCOC(=O)O[C@H]1C[C@@H](C(=O)OC)[C@]2(C)CC[C@H]3C(=O)O[C@H](c4ccoc4)C[C@]3(C)C2C1=O` (stereo partly drawn) [Compound 30] registered a Ki in experiment [4] of over 78.9 nM. Moreover, the EC50 in experiment [5] is over 1120 nM.
In turn, `COC(=O)[C@@H]1C[C@H](OC(=O)Nc2ccccc2)C(=O)C2[C@@]1(C)CC[C@H]1C(=O)O[C@H](c3ccoc3)C[C@]21C` (stereo partly drawn) [Compound 86] displayed a Ki in experiment [4] of 282 ± 13 nM. Also, in experiment [5], the EC50 stood at 197 ± 39 nM and the Emax was determined as 93%.
For the compound `CNC(=O)O[C@H]1C[C@@H](C(=O)OC)[C@]2(C)CC[C@H]3C(=O)O[C@H](c4ccoc4)C[C@]3(C)C2C1=O` (stereo partly drawn) [Compound 10, 2-(O—(N-methyl)formamide)-salvinorin B], in experiment [4], the Ki came to 83 ± 9 nM. For the same compound, in experiment [5], the EC50 came to 201 ± 10 nM and the Emax turned out to be 81%.
In the case of `COC(=O)C1CC(NC(C)C)C(=O)C2C1(C)CCC1C(=O)OC(c3ccoc3)CC12C` (stereo not drawn) [Compound 210a, 2-(N-isopropyl)-salvinorin], the Ki in experiment [4] worked out at 17.6 ± 3.1 nM. Besides, in experiment [5], a half-maximal response (EC50) required 18.9 ± 0.6 nM and the Emax amounted to 99%.
The matching figures for `COC(=O)[C@@H]1C[C@H](OC(C)=O)C(=O)C2[C@@]1(C)CC[C@H]1C(=O)OC(C3CCOC3)C[C@]21C` (stereo partly drawn) [Compound 62]: 19.3 nM, 68.3 nM and 117 ± 4.7%.
In turn, `CCC(=O)N(C)[C@@H]1C[C@@H](C(=O)OC)[C@]2(C)CC[C@H]3C(=O)O[C@H](c4ccoc4)C[C@]3(C)C2C1=O` (stereo partly drawn) [Compound 81, 2-epi-(N-methylpropionamide)-salvinorin] showed a Ki in experiment [4] of 6.9 ± 1.1 nM. The same compound returned an EC50 in experiment [5] of 12.6 ± 0.9 nM.
With “2-(N,N-dimethylamino)-salvinorin [Compound 19]”, the inhibition constant Ki in experiment [4] (read-out: Ki) was determined as 90.9 ± 2.5 nM. Besides, the EC50 in experiment [5] (read-out: EC50) was 343 ± 12 nM.
As for `COC(=O)[C@@H]1C[C@H](NC(=O)NC(=O)C(Cl)(Cl)Cl)C(=O)C2[C@@]1(C)CC[C@H]1C(=O)O[C@H](c3ccoc3)C[C@]21C` (stereo partly drawn) [Compound 79], affinity in experiment [4] was put at a Ki of 227 ± 32 nM. Besides, in experiment [5], the EC50 is 471 ± 110 nM and the Emax was 103%.
In turn, `CCCC(=O)O[C@H]1C[C@@H](C(=O)OC)[C@]2(C)CC[C@H]3C(=O)O[C@H](c4ccoc4)C[C@]3(C)C2C1=O` (stereo partly drawn) [Compound 3, 2-butyryl-salvinorin B] returned a Ki in experiment [4] of 4.9 ± 0.6 nM. Moreover, in experiment [5], the EC50 was determined as 9.9 ± 0.6 nM and the Emax came out at 97%.
Compound `COC(=O)[C@@H]1C[C@H](OC)C(=O)C2[C@@]1(C)CC[C@H]1C(=O)O[C@H](c3ccoc3)C[C@]21C` (stereo partly drawn) [Compound 4, 2-methoxy-salvinorin B] showed a Ki in experiment [4] of 220 ± 12 nM. In addition, in experiment [5], the EC50 came to 389 ± 76 nM and the Emax was 98%.
`CC(=O)O[C@H]1C[C@@H](C(=O)O)[C@]2(C)CC[C@@H]3C(=O)O[C@H](c4ccoc4)C[C@]3(C)C2C1=O` (stereo partly drawn) [Compound 31, epi-demethyl Salvinorin] yielded a Ki in experiment [4] of 17.3 nM. Also, in experiment [5], the EC50 was found to be 84 nM and the Emax was determined as 93 ± 5%.
Take `CC(=O)OC1CC(C(=O)NCC(=O)OCc2ccccc2)C2(C)CCC3C(=O)OC(c4ccoc4)CC3(C)C2C1=O` (stereo not drawn) [Compound 100]: the affinity in experiment [4] corresponds to a Ki of 470 ± 92 nM. Also, in experiment [5], the midpoint of the response, the EC50, lay at 227 ± 15 nM and the Emax was found to be 105%.
In experiment [4], `COC(=O)[C@@H]1C[C@H](OC(N)=O)C(=O)C2[C@@]1(C)CC[C@H]1C(=O)O[C@H](c3ccoc3)C[C@]21C` (stereo partly drawn) [Compound 9, 2-(O-formamide)-salvinorin B] displayed a Ki of 3.2 ± 0.2 nM. Further, in experiment [5], a half-maximal effect (EC50) was put at 6.2 ± 1.4 nM and the Emax was 99%.
Compound `CNC1CC(C(=O)OC)C2(C)CCC3C(=O)OC(c4ccoc4)CC3(C)C2C1=O` (stereo not drawn) [Compound 208a, 2-(N-methyl)-salvinorin] yielded a Ki in experiment [4] of 328 ± 40 nM. Also, in experiment [5], the EC50 was found to be 825 ± 93 nM and the Emax worked out at 82%.
Regarding `COC(=O)O[C@H]1C[C@@H](C(=O)OC)[C@]2(C)CC[C@H]3C(=O)O[C@H](c4ccoc4)C[C@]3(C)C2C1=O` (stereo partly drawn) [Compound 29], the Ki in experiment [4] was over 91 nM. The same compound displayed an EC50 in experiment [5] of over 1720 nM.
`CCCO[C@H]1C[C@@H](C(=O)OC)[C@]2(C)CC[C@H]3C(=O)O[C@H](c4ccoc4)C[C@]3(C)C2C1=O` (stereo partly drawn) [Compound 16, 2-propoxy-salvinorin B] had a Ki in experiment [4] of 28.7 ± 3 nM. In experiment [5], a half-maximal effect (EC50) was put at 67.4 ± 9.9 nM and the Emax is 100%.
Consider `COC(=O)[C@@H]1C[C@H](OCc2ccccc2)C(=O)C2[C@@]1(C)CC[C@H]1C(=O)O[C@H](c3ccoc3)C[C@]21C` (stereo partly drawn) [Compound 17, 2-benzyloxy-salvinorin B], for which affinity in experiment [4] was put at a Ki of 75.7 ± 5.9 nM. The same compound had an EC50 in experiment [5] of 161 ± 14 nM.
With `COC(=O)C1=CC(=O)C=C2[C@@]1(C)CC[C@H]1C(=O)O[C@H](c3ccoc3)C[C@]21C` [Compound 70], the Ki in experiment [4] is over 616 nM. This compound yielded an EC50 in experiment [5] of over 5150 nM.
Consider `COC(=O)[C@@H]1C[C@H](OC(=O)[C@H](C)N(C)C)C(=O)C2[C@@]1(C)CC[C@H]1C(=O)O[C@H](c3ccoc3)C[C@]21C` (stereo partly drawn) [Compound 92], for which the affinity in experiment [4] corresponds to a Ki of 197 ± 19 nM. Moreover, in experiment [5], the EC50 turned out to be 539 ± 11 nM and the Emax was 90%.
`COC(=O)[C@@H]1C[C@@H](N)C(=O)C2[C@@]1(C)CC[C@H]1C(=O)O[C@H](c3ccoc3)C[C@]21C` (stereo partly drawn) [Compound 207b, 2-epi-aminosalvinorin] showed a Ki in experiment [4] of 223 ± 123 nM. In experiment [5], the EC50 amounted to 1370 ± 155 nM and the Emax amounted to 84%.
Regarding `CCC(=O)O[C@H]1C[C@@H](C(=O)OC)[C@]2(C)CC[C@H]3C(=O)O[C@H](c4ccoc4)C[C@]3(C)C2C1=O` (stereo partly drawn) [Compound 2, 2-propionyl-salvinorin B], the Ki in experiment [4] worked out at 7.2 ± 0.5 nM. In addition, in experiment [5], a half-maximal effect (EC50) was put at 20.4 ± 3.4 nM and the Emax was found to be 94%.
With `C#CCCCCOC(=O)C1CC(OC(C)=O)C(=O)C2C1(C)CCC1C(=O)OC(c3ccoc3)CC12C` (stereo not drawn) [Compound 51], the affinity in experiment [4], expressed as Ki, was 679 ± 112 nM. In experiment [5], the EC50 turned out to be 224 ± 4 nM and the Emax was determined as 104 ± 16.5%.
